These are literature values, as cited in US20250019345A1, “NEW CANNABINOID-GAB[…] USES THEREOF” (LONDON PHARMACEUTICALS AND RESEARCH CORPORATION, priority 2021, published 2025).

For this data set the following is noted: after oral administration; for Tmax: cannabinoids.

For `C=C(C)[C@@H]1CCC(C)=C[C@H]1c1c(O)cc(CCCCC)cc1O` [CBD, cannabidiol], the Tmax was about 4 h.
For `CCCCCc1cc(O)c2c(c1)OC(C)(C)[C@@H]1CCC(C)=C[C@@H]21` [THC, delta-9-tetrahydrocannabinol], the Tmax was about 4 h.
Take `CC(C)C[C@H](CN)CC(=O)O` [pregabalin]: the bioavailability entry is “exceed 90%”.
